From patent US20230151014A1 (Repare Therapeutics Inc., priority 2020, published 2023)

These compounds were tested against T1, recombinant human Myt1 (Homo sapiens, UniProt Q99640) (assay: Myt1 enzymatic assay (ADP-Glo kinase assay, IC50 and % max inhibition)). Details: recombinant human Myt1 18 nM, ATP 10 μM.
T1 construct: full length PKMYT1 recombinant human protein expressed in insect cells
T1 sequence (Q99640 1-499): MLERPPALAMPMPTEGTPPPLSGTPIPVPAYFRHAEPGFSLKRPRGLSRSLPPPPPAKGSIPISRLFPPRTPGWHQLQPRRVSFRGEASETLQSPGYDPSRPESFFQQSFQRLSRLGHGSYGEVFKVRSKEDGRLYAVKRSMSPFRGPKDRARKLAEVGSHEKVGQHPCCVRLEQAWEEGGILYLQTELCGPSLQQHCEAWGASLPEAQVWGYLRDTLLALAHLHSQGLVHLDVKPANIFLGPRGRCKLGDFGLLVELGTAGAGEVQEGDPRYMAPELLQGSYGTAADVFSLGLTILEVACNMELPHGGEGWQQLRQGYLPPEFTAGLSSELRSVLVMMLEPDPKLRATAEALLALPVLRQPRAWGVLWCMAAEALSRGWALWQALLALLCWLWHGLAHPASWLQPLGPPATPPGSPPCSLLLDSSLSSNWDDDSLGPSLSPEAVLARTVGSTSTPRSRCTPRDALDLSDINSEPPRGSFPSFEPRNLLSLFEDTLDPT
Type: biochemical
Method: Detection of Myt1 kinase activity utilized a recombinant human Myt1 kinase assay measuring the hydrolysis of ATP using a commercially available ADP-Glo Assay (ADP-Glo™ Kinase Assay from Promega, 10 000 assays, #V9102). […] After this, 5 μL of compounds (diluted in reaction buffer to 0.5% DMSO) was added to the microplate and the plate was spun briefly and incubated at 22° C. for 15 minutes. Ultra-Pure Adenosine Triphosphate (ATP) solution (ADP-Glo kit from Promega) was diluted in reaction buffer and 5 μL was added to the microplate, spun down briefly and incubated for 60 minutes at 30° C. […] After the 60-minute incubation, 15 μL of ADP-Glo reagent was added and the plate was spun briefly and sealed and incubated in the dark for 40 minutes at 22° C. […] Luminescence was read using the Envision (250 ms integration). The IC50 and the % max inhibition were calculated for each inhibitor compound tested.

SMILES	IC50 [µM]
Cc1ccc(O)c(C)c1-n1c(N)c(C(N)=O)c2nc(C#CCc3ccccc3)cnc21 [Compound 1]	0.05
Cc1c(O)ccc(Br)c1-n1c(N)c(C(N)=O)c2cc(Cl)cnc21 [Compound 301]	0.013
Cc1ccc(O)c(C)c1-n1c(N)c(C(N)=O)c2nc(-c3nc4ccccc4o3)cnc21 [Compound 249]	0.02
Cc1ccc(O)c(C)c1-n1c(N)c(C(N)=O)c2nc(N3CCC(C)(O)CC3)cnc21 [Compound 52]	0.01
Cc1ccc(O)c(C)c1-n1cc(C(N)=O)c2cc(C3CC3)cnc21 [Compound 143]	< 0.01
CC(=O)Nc1cccc(-c2cnc3c(C(N)=O)c(N)n(-c4cc(O)ccc4C)c3n2)c1 [Compound 157]	1.24
Cc1ccc(O)c(C)c1-n1c(N)c(C(N)=O)c2nc(C(F)F)cnc21 [Compound 263, 6-amino-2-(difluoromethyl)-5-(3-hydroxy-2,6-dimethyl-phenyl)pyrrolo[2,3-b]pyrazine-7-carboxamide]	0.016
Cc1ccc(O)c(C)c1-n1c(N)c(C(N)=O)c2nccnc21 [Compound 147]	0.055
Cc1ccc(O)c(C)c1-n1c(N)c(C(N)=O)c2nc(C3CC3)c(C3CC3)nc21 [Compound 256]	0.05
CCCCc1cnc2c(n1)c(C(N)=O)c(N)n2-c1c(Cl)ccc(O)c1C [Compound 107]	0.012
Cc1ccc(O)c(C)c1-n1c(N)c(C(N)=O)c2nc(C3CCCCC3)cnc21 [Compound 83]	< 0.01
Cc1ccc(O)cc1-n1c(N)c(C(N)=O)c2nc(C(F)(F)F)ccc21 [Compound 213]	0.195
Cc1ccc(O)c(C)c1-n1c(N)c(C(N)=O)c2cc(Br)c(C)nc21 [Compound 187]	< 0.01
Cc1ccc(O)c(C)c1-n1c(N)c(C(N)=O)c2nc(-c3nccs3)c(C#CC3CC3)nc21 [Compound 214, 6-amino-3-(2-cyclopropylethynyl)-5-(3-hydroxy-2,6-dimethyl-phenyl)-2-thiazol-2-yl-pyrrolo[2,3-b]pyrazine-7-carboxamide]	0.136
Cc1ccc(O)cc1-n1c(N)c(C(N)=O)c2ncc(-c3ccccc3)nc21 [Compound 150, 6-amino-5-(5-hydroxy-2-methyl-phenyl)-3-phenyl-pyrrolo[2,3-b]pyrazine-7-carboxamide]	1.35
Cc1ccc(O)c(C)c1-n1c(N)c(C(N)=O)c2ncc(C#Cc3ccccn3)nc21 [Compound 227]	0.05
Cc1ccc(O)cc1-n1c(N)c(C(N)=O)c2nc(OCc3ccccc3)cnc21 [Compound 281]	0.784
Cc1ccc(O)cc1-n1c(N)c(C(N)=O)c2nc(-c3ccn(C)n3)ccc21 [Compound 12]	0.988
Cc1nc2c(C(N)=O)c(N)n(-c3c(Cl)ccc(O)c3C)c2nc1C [Compound 168]	< 0.01
Cc1ccc(O)cc1-n1c(N)c(C(N)=O)c2nc(OCc3cccnc3)cnc21 [Compound 284]	0.238
Cc1ccc(O)cc1-n1c(N)c(C(N)=O)c2ncc(CCc3cccnc3)nc21 [Compound 162, 6-amino-5-(5-hydroxy-2-methyl-phenyl)-3-[2-(3-pyridyl)ethyl]pyrrolo[2,3-b]pyrazine-7-carboxamide]	0.596
Cc1ccc(O)c(C)c1-n1c(N)c(C(N)=O)c2ncc(C#CCN(C)C)nc21 [Compound 226]	0.012
Cc1ccc(O)c(C)c1-n1c(N)c(C(N)=O)c2cc(Br)cnc21 [Compound 141]	< 0.01
Cc1ccc(O)cc1-n1c(N)c(C(N)=O)c2ncc(C#Cc3cccnc3)nc21 [Compound 160, 6-amino-5-(5-hydroxy-2-methyl-phenyl)-3-[2-(3-pyridyl)ethynyl]pyrrolo[2,3-b]pyrazine-7-carboxamide]	0.554
Cc1ccc(O)cc1-n1c(N)c(C(N)=O)c2nc(-c3cc[nH]n3)ccc21 [Compound 11]	0.252
CCCCc1cnc2c(n1)c(C(N)=O)c(N)n2-c1c(C)ccc(O)c1C [Compound 96]	0.01

SMILES	IC50 [µM]
Cc1ccc(O)cc1-n1c(N)c(C(N)=O)c2nc(-c3cccc(F)n3)ccc21 [Compound 25]	0.399
Cc1ccc(O)c(C)c1-n1c(N)c(C(N)=O)c2nc(-c3cn(C)cn3)cnc21 [Compound 76]	< 0.01
Cc1ccc(O)c(C)c1-n1c(N)c(C(N)=O)c2nc(N3CCOC(C)C3)cnc21 (stereo not drawn) [Compound 59]	0.012
Cc1ccc(O)c(C)c1-n1c(N)c(C(N)=O)c2nc(N3CCCC3)cnc21 [Compound 85]	< 0.01
Cc1ccc(O)c(C)c1-n1c(N)c(C(N)=O)c2ncc(C#CC(C)(C)NS(C)(=O)=O)nc21 [Compound 223]	0.015
Cc1ccc(O)c(C)c1-n1c(N)c(C(N)=O)c2nc(-c3cnccn3)cnc21 [Compound 38]	< 0.01
Cc1ccc(O)c(C)c1-n1c(N)c(C(N)=O)c2ncc(C#CC3(O)CCOCC3)nc21 [Compound 231]	< 0.01
Cc1ccc(O)c(C)c1-n1c(N)c(C(N)=O)c2cc(C(C)C)cnc21 [Compound 138]	< 0.01
Cc1ccc(O)c(C)c1-n1c(N)c(C(N)=O)c2nc(-c3nc(C)c(C)o3)cnc21 [Compound 255]	0.109
Cc1ccc(O)c(C)c1-n1c(N)c(C(N)=O)c2nc(-c3cccc(OC4CCOCC4)n3)cnc21 [Compound 258]	3.13
Cc1ccc(O)c(C)c1-n1c(N)c(C(N)=O)c2nc(-c3nc4ccccc4s3)cnc21 [Compound 248]	< 0.01
Cc1ccc(O)cc1-n1c(N)c(C(N)=O)c2nc(C#CCN3CCOCC3)ccc21 [Compound 16, 2-amino-1-(5-hydroxy-2-methyl-phenyl)-5-(3-morpholinoprop-1-ynyl)pyrrolo[3,2-b]pyridine-3-carboxamide]	9.63
Cc1ccc(O)c(C)c1-n1c(N)c(C(N)=O)c2cc(I)cnc21 [Compound 319]	< 0.01
Cc1ccc(O)c(C)c1-n1c(N)c(C(N)=O)c2ncc(C#CC3CCOCC3)nc21 [Compound 225]	0.034
Cc1ccc(O)c(C)c1-n1c(N)c(C(N)=O)c2cc(N3CCCC3=O)cnc21 [Compound 298]	< 0.01
Cc1ccc(O)c(C)c1-n1c(N)c(C(N)=O)c2ncc(C#Cc3ccccc3)nc21 [Compound 230]	0.368
Cc1ccc(O)c(C)c1-n1c(N)c(C(N)=O)c2cc(-c3nccs3)cnc21 [Compound 308]	< 0.01
Cc1ccc(O)c(C)c1-n1c(N)c(C(N)=O)c2nc(-c3ccnc(C(F)(F)F)c3)cnc21 [Compound 35, 6-amino-5-(3-hydroxy-2,6-dimethyl-phenyl)-2-[2-(trifluoromethyl)-4-pyridyl]pyrrolo[2,3-b]pyrazine-7-carboxamide]	< 0.01
Cc1ccc(O)c(C)c1-n1c(N)c(C(N)=O)c2ncc(C#CCC3CCOCC3)nc21 [Compound 222]	< 0.01
Cc1ccc(O)c(C)c1-n1c(N)c(C(N)=O)c2nc(C3=CCCCC3)cnc21 [Compound 86]	< 0.01
Cc1ccc(O)c(C)c1-n1c(N)c(C(N)=O)c2nc(N3CCS(=O)(=O)CC3)cnc21 [Compound 75]	0.011
Cc1ccc(O)c(C)c1-n1c(N)c(C(N)=O)c2nc(-c3ncco3)cnc21 [Compound 60]	0.01
Cc1ccc(O)cc1-n1c(N)c(C(N)=O)c2nc(-c3ccc(N4CCN(CCO)CC4)cc3)ccc21 [Compound 13]	0.19
Cc1ccc(O)cc1-n1c(N)c(C(N)=O)c2nc(-c3ccc(N4CCOCC4)nc3)ccc21 [Compound 7]	0.605
Cc1ccc(O)c(C)c1-n1c(N)c(C(N)=O)c2ncc(C#CC3(O)CCOC3)nc21 (stereo not drawn) [Compound 236]	0.016
